Values quoted from earlier work in patent publication US9474524B2, “Packaged antimicrobial medical device having improved shelf life and method of preparing same” (Ethicon, Inc., priority 2002, dated 2016).

System: S. aureus
Details: suitable growth medium; Bhargava, H. et al, American Journal of Infection Control, June 1996

Oc1cc(Cl)ccc1Oc1ccc(Cl)cc1Cl [2,4,4′-trichloro-2′-hydroxydiphenyl ether]
minimum inhibitory concentration (MIC) against S. aureus: 0.01 ppm
